Assay results published in patent US20230031406A1, “COMPOUNDS AND COMPOSITIONS FOR TREATING CONDITIONS ASSOCIATED WITH NLRP ACTIVITY” (Novartis AG, priority 2018, published 2023).

Each compound was assayed on PMA-differentiated THP-1 cells (assay: IL-1β production in PMA-differentiated THP-1 cells stimulated with gramicidin (hTHP-1 assay containing 2% fetal bovine serum; Procedures 1 and 2)). Conditions: Homo sapiens, THP-1, Table B1; 2% fetal bovine serum; class symbols; read-out: Average IC50 of compounds in hTHP-1 assay: hTHP-1 IC50.
Type: cell-based, human
Summary of the method: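 PMA 20 ng/ml 16-18 h → trypsinise → 50,000 cells/well, RPMI/2% FBS; cpd 1 h (11-pt, 100–0.0017 μM; DMSO 0.37%); gramicidin 5 μM, 2 h; spin; supernatant IL-1β via HTRF.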

| IC50 [nM] | SMILES |
| --- | --- |
| 5000 to 30000 | CC(C)c1cncc(C(C)C)c1NC(=O)N=S(N)(=O)c1cnc(C(C)(C)O)s1 (stereo not drawn) [Compound 160, N′-((3,5-diisopropylpyridin-4-yl)carbamoyl)-2-(2-hydroxypropan-2-yl)thiazole-5-sulfonimidamide] |
| 1000 to 5000 | Cn1nc(S(N)(=O)=NC(=O)Nc2c3c(nc4c2CCC4)CCC3)cc1C(C)(C)O (stereo not drawn) [Compound 158, N-((1,2,3,5,6,7-hexahydrodicyclopenta[b,e]pyridin-8-yl)carbamoyl)-5-(2-hydroxypropan-2-yl)-1-methyl-1H-pyrazole-3-sulfonimidamide] |
| 200 to 1000 | Cc1sc(S(N)(=O)=NC(=O)Nc2c3c(nc4c2CCC4)CCC3)cc1C(C)(C)O (stereo not drawn) [Compound 107, N′-((1,2,3,5,6,7-hexahydrodicyclopenta[b,e]pyridin-8-yl)carbamoyl)-4-(2-hydroxypropan-2-yl)-5-methylthiophene-2-sulfonimidamide] |

Same assay, conditions: Homo sapiens, THP-1, Table B1; 2% fetal bovine serum; numeric bounds; read-out: Average IC50 of compounds in hTHP-1 assay: hTHP-1 IC50

| IC50 [nM] | SMILES |
| --- | --- |
| > 30000 | CC(C)c1ncc(F)c(C(C)C)c1NC(=O)N=S(N)(=O)c1ccc(CN(C)C)cc1 (single isomer, unassigned) [Compound 132b, (S) or (R)-4-((dimethyl-amino)methyl)-N′-((5-fluoro-2,4-diisopropylpyridin-3-yl)carbamoyl)benzene-sulfonimidamide] |
| > 30000 | CC(C)(O)c1ccc(S(N)(=O)=NC(=O)Nc2c3c(nc4c2CCC4)CCC3)cn1 (stereo not drawn) [Compound 156, N′-((1,2,3,5,6,7-hexahydrodicyclopenta[b,e]pyridin-8-yl)carbamoyl)-6-(2-hydroxypropan-2-yl)pyridine-3-sulfonimidamide] |

Same assay, conditions: Homo sapiens, THP-1, Table B2; 2% fetal bovine serum; class symbols; read-out: hTHP-1 IC50

| IC50 [nM] | SMILES |
| --- | --- |
| 200 to 1000 | CC(C)(O)c1cncc(S(N)(=O)=NC(=O)Nc2c3c(nc4c2CCC4(C)C)CCC3)c1 (stereo not drawn) [Compound 684, N′-((3,3-dimethyl-1,2,3,5,6,7-hexahydrodicyclopenta[b,e]pyridin-8-yl)carbamoyl)-5-(2-hydroxypropan-2-yl)pyridine-3-sulfonimidamide] |
| 1000 to 5000 | CC(C)(O)c1cc(C#N)cc(S(N)(=O)=NC(=O)Nc2c3c(nc4c2CCC4(C)C)CCC3)c1 (single isomer, unassigned) [Compound 674b, (R) or (S)-3-Cyano-N′-((3,3-dimethyl-1,2,3,5,6,7-hexahydrodicyclopenta [b,e]pyridin-8-yl)carbamoyl)-5-(2-hydroxypropan-2-yl)benzene-sulfonimidamide] |
| 1000 to 5000 | Cc1c(C2CC2)nc(C2CC2)c(C)c1NC(=O)N=S(N)(=O)c1cc(C(C)(C)O)cs1 (stereo not drawn) [Compound 612, N′-((2,6-dicyclopropyl-3,5-dimethylpyridin-4-yl)carbamoyl)-4-(2-hydroxypropan-2-yl)thiophene-2-sulfonimidamide] |
| 1000 to 5000 | COCCOC[C@@](C)(O)c1ncc(S(N)(=O)=NC(=O)Nc2c3c(nc4c2CCC4(C)C)CCC3)s1 (stereo partly drawn) [Compound 736, N′-((3,3-dimethyl-1,2,3,5,6,7-hexahydrodicyclopenta [b,e]pyridin-8-yl)carbamoyl)-2-((R)-2-hydroxy-1-(2-methoxyethoxy)propan-2-yl)thiazole-5-sulfonimidamide] |
| 1000 to 5000 | CC(C)(O)c1ccc(S(N)(=O)=NC(=O)Nc2c3c(nc4c2CCC4(C)C)CCC3)cn1 (single isomer, unassigned) [Compound 673a, (R) or (S)-N′-((3,3-dimethyl-1,2,3,5,6,7-hexahydrodicyclopenta [b,e]pyridin-8-yl)carbamoyl)-6-(2-hydroxypropan-2-yl)pyridine-3-sulfonimidamide] |
| 200 to 1000 | CCn1ccc([S@](N)(=O)=NC(=O)Nc2c3c(nc4c2CCC42CC2)CCC3)n1 [Compound 604b] |
| 1000 to 5000 | CCn1ccc(S(N)(=O)=NC(=O)Nc2c(C)c(C(F)(F)F)nc3c2CCC3)n1 (stereo not drawn) [Compound 731] |

Same assay, conditions: Homo sapiens, THP-1, Table B2; 2% fetal bovine serum; numeric bounds; read-out: hTHP-1 IC50

| IC50 [nM] | SMILES |
| --- | --- |
| > 30000 | CC(C)n1cc(S(N)(=O)=NC(=O)Nc2c3c(nc4c2CCC4(C)C)CCC3)c(CO)n1 (single isomer, unassigned) [Compound 653b, (S) or (R)-N′-((3,3-dimethyl-1,2,3,5,6,7-hexahydrodicyclopenta [b,e]pyridin-8-yl)carbamoyl)-3-(hydroxymethyl)-1-isopropyl-1H-pyrazole-4-sulfonimidamide] |
| > 30000 | Cc1c(C2(C)CC2)nc2c(c1NC(=O)N=S(N)(=O)c1cc(C(C)(C)O)cs1)CCC2 (single isomer, unassigned) [Compound 669a, (S) or (R)-4-(2-Hydroxypropan-2-yl)-N′-((3-methyl-2-(1-methylcyclopropyl)-6,7-dihydro-5H-cyclopenta[b]pyridin-4-yl)carbamoyl) thiophene-2-sulfonimidamide] |
| > 30000 | Cc1c(C(F)(F)F)nc2c(c1NC(=O)N=S(N)(=O)c1ccn(C(C)C)n1)CCC2 (single isomer, unassigned) [Compound 628a, (S) or (R)-1-Isopropyl-N′-((3-methyl-2-(trifluoromethyl)-6,7-dihydro-5H-cyclopenta[b]pyridin-4-yl)carbamoyl)-1H-pyrazole-3-sulfonimidamide] |

Same assay, conditions: Homo sapiens, THP-1, Table B3; hTHP-1 assay, 2% fetal bovine serum; class symbols; read-out: IC50

| IC50 [nM] | SMILES |
| --- | --- |
| 1000 to 5000 | Cc1c(C2(F)CC2)nc2c(c1NC(=O)N=[S@@](N)(=O)c1cnc(C(C)(C)O)s1)CCC2 [Example 579, (R)-N′-((2-(1-fluorocyclopropyl)-3-methyl-6,7-dihydro-5H-cyclopenta[b]pyridin-4-yl)carbamoyl)-2-(2-hydroxypropan-2-yl)thiazole-5-sulfonimidamide] |
| 1000 to 5000 | CC1(C)CCc2c1nc1c(c2NC(=O)N=[S@@](N)(=O)c2sc(C(O)(CO)CO)nc2CO)CCC1 [Compound 985a] |
| 40 to 200 | CC1(C)CCc2c1nc1c(c2NC(=O)N=S(N)(=O)c2nn(C(F)F)cc2F)CCC1 (stereo not drawn) [Example 621, 1-(Difluoromethyl)-N′-((3,3-dimethyl-1,2,3,5,6,7-hexahydrodicyclopenta[b,e]pyridin-8-yl)carbamoyl)-4-fluoro-1H-pyrazole-3-sulfonimidamide] |
| 200 to 1000 | CCn1nc(S(N)(=O)=NC(=O)Nc2c3c(nc4c2CCC4(C)C)CCC3)cc1CO (single isomer, unassigned) [Example 726, (R) or (S)-N′-((3,3-dimethyl-1,2,3,5,6,7-hexahydrodicyclopenta[b,e]pyridin-8-yl)carbamoyl)-1-ethyl-5-(hydroxymethyl)-1H-pyrazole-3-sulfonimidamide] |

Same assay, conditions: Homo sapiens, THP-1, Table B4; 2% fetal bovine serum; class symbols; read-out: hTHP-1 IC50

| IC50 [nM] | SMILES |
| --- | --- |
| 8 to 40 | CCn1cc(F)c(S(N)(=O)=NC(=O)Nc2c3c(nc(C(F)(F)F)c2-c2ccccc2F)CCC3)n1 (stereo not drawn) [Example 746, 1-Ethyl-4-fluoro-N′-((3-(2-fluorophenyl)-2-(trifluoromethyl)-6,7-dihydro-5H-cyclopenta[b]pyridin-4-yl)carbamoyl)-1H-pyrazole-3-sulfonimidamide] |

Same assay, conditions: Table B1; 2% fetal bovine serum; class symbols; read-out: Average IC50 of compounds in hTHP-1 assay: hTHP-1 IC50

| IC50 [nM] | SMILES |
| --- | --- |
| 5000 to 30000 | CC(C)n1ccc(S(N)(=O)=NC(=O)Nc2c3c(nc4c2CCC42CC2)CCC3)n1 (single isomer, unassigned) [Compound 172a, (S) or (R)-1-Isopropyl-N′-((1′,5′,6′,7′-tetrahydro-2′H-spiro[cyclopropane-1,3′-dicyclopenta[b,e]pyridin]-8′-yl)carbamoyl)-1H-pyrazole-3-sulfonimidamide] |
| 200 to 1000 | Cc1c(C2CC2)nc2c(c1NC(=O)N=S(N)(=O)c1cc(C(C)(C)O)cs1)CCC2 (single isomer, unassigned) [Compound 175b, (S) or (R)-N′-((2-cyclopropyl-3-methyl-6,7-dihydro-5H-cyclopenta[b]pyridin-4-yl)carbamoyl)-4-(2-hydroxy-propan-2-yl)thiophene-2-sulfonimidamide] |
| 200 to 1000 | CC(C)n1ccc(S(N)(=O)=NC(=O)Nc2c3c(nc4c2CCC42CC2)CCC3)n1 (single isomer, unassigned) [Compound 172b, (R) or (S)-1-Isopropyl-N′-((1′,5′,6′,7′-tetrahydro-2′H-spiro[cyclopropane-1,3′-dicyclopenta[b,e]pyridin]-8′-yl)carbamoyl)-1H-pyrazole-3-sulfonimidamide] |

Same assay, conditions: Table B2; 2% fetal bovine serum; class symbols; read-out: hTHP-1 IC50

| IC50 [nM] | SMILES |
| --- | --- |
| 1000 to 5000 | Cc1c(C(F)(F)F)nc2c(c1NC(=O)N=S(N)(=O)c1cnc(C(C)(C)O)s1)CCC2C (stereo not drawn) [Compound 608, N′-((3,7-dimethyl-2-(trifluoromethyl)-6,7-dihydro-5H-cyclopenta[b]pyridin-4-yl)carbamoyl)-2-(2-hydroxypropan-2-yl)thiazole-5-sulfonimidamide] |
| 5000 to 30000 | CC1(C)CCc2c1nc1c(c2NC(=O)N=S(N)(=O)c2cnc(C(C)(O)CO)s2)CCC1 (single isomer, unassigned) [Compound 201d, (R, S) or (S, S) or (S, R) or (R, R)-2-(1.2-Dihydroxypropan-2-yl)-N′-((3,3-dimethyl-1,2,3,5,6.7-hexahydrodicyclopenta [b,e]pvridin-8-yl)carbamoyl)thiazole-5-sulfonimidamide] |
| 5000 to 30000 | Cc1c(C(F)(F)F)nc2c(c1NC(=O)N=S(N)(=O)c1cnc(C(C)(C)O)s1)CCC2 (single isomer, unassigned) [Compound 661b, (S) or (R)-2-(2-Hydroxypropan-2-yl)-N′-((3-methyl-2-(trifluoromethyl)-6,7-dihydro-5H-cyclopenta[b]pyridin-4-yl)carbamoyl)thiazole-5-sulfonimidamide] |

Same assay, conditions: Table B3; hTHP-1 assay, 2% fetal bovine serum; class symbols; read-out: IC50

| IC50 [nM] | SMILES |
| --- | --- |
| 1000 to 5000 | CCn1cc(F)c(S(N)(=O)=NC(=O)Nc2c(C)c(C3CC3)nc3c2CCC3)n1 (single isomer, unassigned) [Example 714, (S) or (R)-N′-((2-cyclopropyl-3-methyl-6,7-dihydro-5H-cyclopenta[b]pyridin-4-yl)carbamoyl)-1-ethyl-4-fluoro-1H-pyrazole-3-sulfonimidamide] |
